Measured values reported in patent US12325646B2, “Fertigation water treatment” (UNIVERSITY OF GUELPH, priority 2019, dated 2025).
In brackets after ≈: the same amount, converted by molar mass. Several values for one entry are separate records, joined by “and”; a condition that tells them apart may be missing. Identical values can stand only once. Entries after “also recorded” stand apart in the source; their conditions may differ. Like-named read-outs stand apart in the source and are kept apart here.

What was measured:
Lemna minor [1] = assay: Water treatment of commercial pesticide solutions in the EFC followed by Lemna minor growth test; type: in vivo
Lemna minor [2] = assay: Lemna minor bioassay (dose-response, 7-day growth); type: in vivo; settings: for EC50: 168 h, read-out: EC50 dose from dose-response analysis of Lemna minor growth
Text: A sterile culture of Lemna minor was obtained from the laboratory of Dr. Ryan Prosser (University of Guelph, School of Environmental Science). The culture was transferred to a 1 L Erlenmeyer flask containing a ½ strength Hoagland solution. The cultures were transferred to a growth chamber and were left for a growing period of 7 days. After the growth period, the Erlenmeyer flasks were brought to the lab to use the healthy plants for bioassay and water treatment experiments.
The temperature and humidity sensors were built in house by the Controlled Environment Systems Research Facility (CESRF) at the University of Guelph. The growth chamber conditions for humidity and temperature were recorded using an Acer Aspire 7750 laptop (P7YEO, Acer, Taiwan) and using the Termite software for data logging (version 3.4). The temperature was maintained at 25.68±0.02° C. and the relative humidity was 38.34±0.05%. Lumigrow pro 325 LED lights (LU60001, Lumigrow, USA) were used at a 80:10:10 ratio of Red:Blue:White as overhead lighting for plants (FIGS. 38A & 38B). Furthermore, a grid system inside the growth chamber with 36 grid boxes were used to place Erlenmeyer flasks in a completely randomized design (FIG. 38C). Each ‘grid’ was measured for photosynthetically active radiation (PAR) using a modular spectrometer (USB2000+, Ocean Optics Inc., USA). This allowed to account for random differences attributed to light intensity within the growth chamber. A heat map is generated with this information and in the middle of the ‘grid box’ there was a maximum intensity of […] (FIG. 39).
The analysis of dose-response curves for affecting the growth of Lemna minor was determined using the ‘drc’ package (v. 3.0-1, Christian Ritz, 2016) in the statistical program RStudio (v. 1.0.153, RStudio Inc., USA). The program was used to determine the EC 50 for each measured parameter for plant health and reproduction of the number of plants, number of fronds, and the dry weights of plants contained in each flask.
All solutions were treated with the four different water treatment methods and 75 mL of effluent solution was collected and added in 250 mL Erlenmeyer flasks. Negative control samples only contained 75 mL of deionized water, while all other treatments (positive control, Ozone, AOP, DSA, and BDD) contained 75 mL of the treated and non-treated solution. In a separate 3-litre beaker, a full-strength Hoagland solution was prepared and mixed with a magnetic stirrer (220T, Fisher Scientific, Canada). For each of the Erlenmeyer flasks containing the treated solutions, 75 mL of the Hoagland solution was added into each flask. […] Lemna minor that were previously cultured and acclimated to the ‘Grid box’ were then added to each flask. Two Lemna minor plants with three fronds each were added to flasks for the experiment. All 5 treatments contained 3 Erlenmeyer flasks giving a total of […] and the experiment was performed in triplicate. All of the flasks were placed at random inside the growth chamber within each grid and recorded their location. The pH and electrical conductivity of the solutions were also measured after the 7-day growth period.
Significant differences were only observed at the concentration of 15 mg/L of glyphosate for the final number of fronds and the dry weight of plants (FIGS. 41A & 41B). […] Noticeable differences such as the number of plants, lighter colour of fronds, and spindly roots can be visualized in comparison with the control (FIG. 42A) to the presence of 15 mg/L of glyphosate (FIG. 42B).

[3] = Electrochemical treatment of chemical standards in batch cell (DSA or BDD anodes); type: physicochemical; set-up: reduction of compound in solution: concentration or dose not given beside the values; settings: for NPOC decrease / TN decrease: 2.27 mA/cm^2, up to 6-minute contact time, batch cell, 20 mg/L chloride
Protocol: Initial water treatment was performed by treating the solution by batch cell using the DSA and BDD anodes, as well as stainless steel (SS) cathodes. The experiment used a 2 L beaker and filled the beaker with 1.8 L of deionized water and dissolved the chemical standards glyphosate (45521, Sigma-Aldrich, USA) or paclobutrazol (46046, Sigma-Aldrich, USA) for separate treatments. The solution was constantly mixed using a magnetic stirrer (220T, Fisher Scientific, Canada) and bar during treatment with chemical standards. Samples containing glyphosate and paclobutrazol standards were submitted to the Agriculture and Food Laboratory (University of Guelph) to quantify samples using LC-MS/MS. The mean quantifiable limit for the analytical method was 8 μg/L for glyphosate, AMPA, and paclobutrazol. The non-purgeable organic carbon (NPOC) and total nitrogen (TN) of the solution were determined using a Shimadzu TOC-Vpn & TNM-1 analyzer. A calibration curve (R^2=0.99) was produced before performing the sample analysis using TOC and TN standards.
The degradation of both glyphosate (8.5 mg/L) and paclobutrazol (12 mg/L) was conducted with the use of electrochemical systems for a direct comparison on their efficacies in a batch cell configuration. […] The NPOC and TN had larger decreases between the 3 and 6-minute contact time with the DSA electrodes for glyphosate, while the changes were more subtle using BDD electrodes.

[4] = BDD electrodes, 2.27 mA/cm^2, 6-minute contact time, LC-MS/MS
[5] = DSA electrodes, 2.27 mA/cm^2, 6-minute contact time, LC-MS/MS

concentration with significant differences for all measured parameters in the health of Lemna minor (Lemna minor [2]; Lemna minor, in vivo, 7 days) [ng/mL]	reduction of compound in solution [3, 5]	Structure (SMILES)	concentration remaining after treatment, inferred from plant growth parameters (Lemna minor [1]; Bonzi, 3 mg/L paclobutrazol, BDD electrodes, recirculated 3 passes, 18 minutes total contact)	EC50 (Lemna minor [2]; Lemna minor, 7 days in growth chamber, glyphosate as Glyfos, paclobutrazol as Bonzi, drc package) [µg/mL]	LOEC levels (Lemna minor [2]; Lemna minor, in vivo, 7 days) [mg/L]	effect on plant physiological and reproductive health parameters vs control (Lemna minor [2]; in vivo)	reduction of compound in solution [3, 4]	NPOC decrease ([3]; BDD electrodes)	TN decrease ([3]; BDD electrodes)	NPOC decrease ([3]; DSA electrodes)	TN decrease ([3]; DSA electrodes)	increase of AMPA in glyphosate solution ([3]; BDD electrodes, 2.27 mA/cm^2, 0 to 6-minute contact time) [mg/L]	AMPA concentration after treatment of glyphosate solution ([3]; BDD electrodes, 2.27 mA/cm^2, 6 minutes, increased from 0.009) [mg/L]	concentration remaining after treatment, inferred from plant growth (Lemna minor [1]; Roundup, 7 mg/L glyphosate, DSA electrodes, 2.27 mA/cm^2, 1-minute contact time)	concentration with significant differences in final number of fronds and dry weight of plants (Lemna minor [2]; Glyfos, 7 days growth) [ng/mL]	EC50 (Lemna minor [2]; Lemna minor) [µg/mL]	NPOC decrease ([3]; BDD electrodes, listed as Glyphosate) [%]	level remaining in solution after treatment (below detection limit) [3, 5] [ng/mL]
50	28.29% and 28%	CC(C)(C)[C@@H](O)[C@@H](Cc1ccc(Cl)cc1)n1cncn1 (racemic) [paclobutrazol]	lower than 0.05 mg/L	0.01 (≈ 0.034 µM)	0.01	Significant decreases were observed for all tested concentrations	80.94% and 81%	18.41% and 18%	22.58% and 23%	unaffected; also recorded: no significant effect	7.12% and 7%	–	–	–	–	–	–	–
–	–	NCP(=O)(O)O [AMPA, aminomethylphosphonic acid]	–	–	–	–	–	–	–	–	–	0.10	0.11	–	–	–	–	–
–	–	O=C(O)CNCP(=O)(O)O [glyphosate, N-(phosphonomethyl)glycine]	–	–	–	–	72.47% and 72%	19.73%	32.61% and 32%	16.18% and 16%	85.97% and 86%	–	–	lower than 2.5 mg/L	15000	~9 (≈ 53.2 µM)	20	< 8
